The text below walks through data of patent US8895753B2, “S1P receptor modulating agent” (Meiji Seika Pharma Co., Ltd., priority 2011, dated 2014).

Test [1] deals with T1, Human S1P1 receptor (Homo sapiens, UniProt P21453). The test is described as follows: Agonist activity at an S1P1 receptor ([35S]-GTPγS exchange reaction, membrane fractions). The conditions noted are these: read-out: EC50, agonist activity at S1P1 receptor (GTP exchange reaction). In kind it is biochemical. As to the method: (§1) By using membrane fractions prepared from a human S1P1 receptor expressing cells (Multispan Ltd.), the agonist activity of each test compound was measured by [^35S]-GTPγS exchange reaction in accordance with a standard procedure (Methods in Molecular Biology, Vol. 552, p 143-151 (2009)), and EC50 (nM) of each test compound was computed.
T1 sequence (P21453 whole entry): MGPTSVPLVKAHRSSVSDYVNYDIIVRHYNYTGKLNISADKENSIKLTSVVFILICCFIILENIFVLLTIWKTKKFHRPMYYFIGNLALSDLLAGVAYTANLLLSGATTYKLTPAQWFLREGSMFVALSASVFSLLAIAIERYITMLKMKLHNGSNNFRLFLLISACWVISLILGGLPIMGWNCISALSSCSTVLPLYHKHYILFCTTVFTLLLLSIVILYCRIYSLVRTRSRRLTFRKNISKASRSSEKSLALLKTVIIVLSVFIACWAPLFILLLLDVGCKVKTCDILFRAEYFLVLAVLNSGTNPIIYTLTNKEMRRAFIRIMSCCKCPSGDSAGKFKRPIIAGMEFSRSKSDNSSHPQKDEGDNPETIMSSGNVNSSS

The target of a further test is Human S1P3 receptor (Homo sapiens, UniProt Q99500). The test is described as follows: Agonist activity at an S1P3 receptor ([35S]-GTPγS exchange reaction at 1000 nM). Type of test: biochemical. The conditions noted are these: read-out: percent of the maximal agonist activity at S1P3 receptor. As to the method: as §1
Sequence of Human S1P3 receptor (Q99500 whole entry): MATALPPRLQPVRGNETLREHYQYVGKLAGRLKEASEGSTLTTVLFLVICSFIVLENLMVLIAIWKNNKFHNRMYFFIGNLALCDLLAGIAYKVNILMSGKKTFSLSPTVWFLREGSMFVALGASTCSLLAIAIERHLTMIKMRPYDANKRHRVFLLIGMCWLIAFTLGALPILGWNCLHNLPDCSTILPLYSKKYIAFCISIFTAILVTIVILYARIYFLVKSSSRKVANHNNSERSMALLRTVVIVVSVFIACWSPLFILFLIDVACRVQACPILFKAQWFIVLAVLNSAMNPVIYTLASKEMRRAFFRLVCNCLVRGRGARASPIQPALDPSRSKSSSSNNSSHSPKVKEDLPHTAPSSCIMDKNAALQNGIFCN
By using membrane fractions prepared from Human S1P3 receptor expressing cells (Multispan Inc.), the agonist activity of the compound in the present invention was measured by a [^35S]-GTPγS exchange reaction at 1000 nM by the similar method of the Experimental Example 2.

The next test has as its target T2, Human S1P4 receptor (Homo sapiens, UniProt O95977).
T2 sequence (O95977 1-384): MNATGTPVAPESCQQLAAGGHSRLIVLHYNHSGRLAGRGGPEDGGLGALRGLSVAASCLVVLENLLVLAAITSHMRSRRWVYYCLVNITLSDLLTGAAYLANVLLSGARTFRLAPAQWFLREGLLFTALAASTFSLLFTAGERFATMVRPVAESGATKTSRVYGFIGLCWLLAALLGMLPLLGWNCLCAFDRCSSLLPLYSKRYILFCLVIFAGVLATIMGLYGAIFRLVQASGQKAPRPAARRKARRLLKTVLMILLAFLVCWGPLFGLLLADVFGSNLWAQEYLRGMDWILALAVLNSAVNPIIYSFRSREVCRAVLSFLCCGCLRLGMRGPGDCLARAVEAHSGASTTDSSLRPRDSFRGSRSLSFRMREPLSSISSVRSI
The test is described as follows: Agonist activity at an S1P4 receptor (calcium influx). Type of test: cell-based. The settings on record: at 1000 nM; read-out: activity at S1P4 receptor (elevation of intracellular calcium). On the procedure: By using Human S1P4 receptor expressing cells (Multispan Inc. CG1052-1), the elevation of intracellular calcium concentration via agonist activity by the addition of 1000 nM was measured by Fret method (fluorescence resonance energy transfer).

Test [2] addresses T1, Human S1P1 receptor. The test is described as follows: Agonist activity at an S1P1 receptor (reporter assay, EDG1-bla/U2OS cells). In kind it is cell-based. Also noted: host or cells: U2OS (EDG1-bla/U2OS). The settings on record: S1P maximum response = 100%. On the procedure: Human S1P1 receptor gene recombinant EDG1-bla/U2OS cells (Life Technologies Japan Ltd.) were plated in a 96-well half-sized clear bottom black plate at a density of 10000 cells/32 μL/well, and then the plate was incubated at 37° C. in a 5% CO2 incubator for 48 hours. A culture medium containing each test compound prepared as a 5× concentrate was added at 8 μL/well, and the plate was incubated at 37° C. in a 5% CO2 incubator for 5 hours. The substrate (LiveBLAzer™-FRET B/G substrate (CCF4-AM), Life Technologies Japan Ltd.) prepared as a 6× concentrate was added at 8 μL into each well, and the plate was incubated at room temperature for 2 hours in the dark. The fluorescence intensity of each well was detected using a bottom-reading fluorescence microplate reader (EnVision: ParkinElmer) at one excitation wavelength and 2 wavelengths for fluorescence emission (Ex409 nm, Em460 nm, Em530 nm). The intensity ratio of fluorescence at 460 nm/530 nm was calculated for each well. The maximum response ratio confirmed from the dose response of SIP was expressed as 100%. The concentration of a test compound required to stimulate 50% of its maximal activation was computed as EC50 (nM).

As for `CC(C)Oc1ccc(-c2cnc(-c3ccc(CN4CC(C(=O)O)C4)c(F)c3)s2)cc1` [Example 22, 1-(2-fluoro-4-(5-(4-isopropoxyphenyl)thiazol-2-yl)benzyl)azetidine-3-carboxylic acid], the EC50 at Human S1P1 receptor [1] and at Human S1P1 receptor [2] was at most 0.01 µM each time. Besides, the Emax at 1 µM at Human S1P3 receptor was under 20%. Further, the activation at 1 µM at Human S1P4 receptor is under 20%.

On to `CC(C)Oc1ccc(-c2cnc(-c3ccc(CN4CC(C(=O)O)C4)c(Cl)c3)s2)cc1` [Example 23, 1-(2-chloro-4-(5-(4-isopropoxyphenyl)thiazol-2-yl)benzyl)azetidine-3-carboxylic acid], for which the 50% effective concentration (EC50) is at most 0.05 µM at Human S1P1 receptor [1] and at most 0.01 µM at Human S1P1 receptor [2]. Besides, the Emax at 1 µM on Human S1P3 receptor was under 20%. Further, the activation at 1 µM at Human S1P4 receptor was under 20%.

Turning to `CCOc1ccc(-c2cnc(-c3ccc(CN4CC(C(=O)O)C4)cc3)s2)cc1` [Example 31, 1-(4-(5-(4-ethoxyphenyl)thiazol-2-yl)benzyl)azetidine-3-carboxylic acid], the EC50 on Human S1P1 receptor [1] was at most 0.05 µM; at Human S1P1 receptor [2], at most 0.1 µM. The Emax at 1 µM on Human S1P3 receptor is under 20%. The activation at 1 µM on Human S1P4 receptor was under 20%.

For `O=C(O)C1CN(Cc2ccc(-c3ncc(-c4ccc(C5CCCC5)cc4)s3)cc2)C1` [Example 34, 1-(4-(5-(4-cyclopentylphenyl)thiazol-2-yl)benzyl)azetidine-3-carboxylic acid], the values for the EC50 at Human S1P1 receptor [1] and on Human S1P1 receptor [2] were at most 0.01 µM and at most 0.001 µM, respectively. Moreover, the Emax at 1 µM on Human S1P3 receptor was under 20%. Moreover, the activation at 1 µM on Human S1P4 receptor was under 20%.

As to `O=C(O)C1CN(Cc2ccc(-c3ncc(-c4ccc(C5CCCCC5)cc4)s3)cc2)C1` [Example 36, 1-(4-(5-(4-cyclohexylphenyl)thiazol-2-yl)benzyl)azetidine-3-carboxylic acid], the half-maximal effective concentration (EC50) on Human S1P1 receptor [1] is at most 0.1 µM; at Human S1P1 receptor [2], at most 0.01 µM. In addition, the Emax at 1 µM on Human S1P3 receptor was under 20%. Also, the activation at 1 µM at Human S1P4 receptor is under 20%.

In the case of `Cc1cc(CN2CC(C(=O)O)C2)ccc1-c1ncc(-c2ccc(OC(C)C)c(Cl)c2)s1` [Example 37, 1-(4-(5-(3-chloro-4-isopropoxyphenyl)thiazol-2-yl)-3-methylbenzyl)azetidine-3-carboxylic acid], the half-maximal effective concentration (EC50) at Human S1P1 receptor [1] is at most 0.01 µM; on Human S1P1 receptor [2], at most 0.001 µM. Further, the Emax at 1 µM at Human S1P3 receptor lay within 20 to 50%. In addition, the activation at 1 µM at Human S1P4 receptor was under 20%.

As for `CCCOc1ccc(-c2cnc(-c3ccc(CN4CC(C(=O)O)C4)cc3)s2)cc1` [Example 38], the figures for the EC50 at Human S1P1 receptor [1] and on Human S1P1 receptor [2] were at most 0.05 µM and at most 0.1 µM, respectively. The Emax at 1 µM at Human S1P3 receptor is under 20%. Further, the activation at 1 µM on Human S1P4 receptor is under 20%.

Regarding `CCCc1ccc(-c2cnc(-c3ccc(CN4CC(C(=O)O)C4)cc3)s2)cc1` [Example 45, 1-(4-(5-(4-propylphenyl)thiazol-2-yl)benzyl)azetidine-3-carboxylic acid], the concentration for a half-maximal effect (EC50) on Human S1P1 receptor [1] is at most 0.05 µM; at Human S1P1 receptor [2], at most 0.01 µM. The Emax at 1 µM on Human S1P3 receptor is under 20%. Besides, the activation at 1 µM at Human S1P4 receptor is under 20%.

As to `CC(C)c1ccc(-c2cnc(-c3ccc(CN4CC(C(=O)O)C4)cc3)s2)cc1` [Example 46, 1-(4-(5-(4-isopropylphenyl)thiazol-2-yl)benzyl)azetidine-3-carboxylic acid], the 50% effective concentration (EC50) is at most 0.05 µM on Human S1P1 receptor [1] and at most 0.01 µM on Human S1P1 receptor [2]. Moreover, the Emax at 1 µM on Human S1P3 receptor is under 20%. Besides, the activation at 1 µM on Human S1P4 receptor was under 20%.

For `CCCCc1ccc(-c2cnc(-c3ccc(CN4CC(C(=O)O)C4)cc3)s2)cc1` [Example 47, 1-(4-(5-(4-butylphenyl)thiazol-2-yl)benzyl)azetidine-3-carboxylic acid], the half-maximal effective concentration (EC50) on Human S1P1 receptor [1] is at most 0.05 µM; at Human S1P1 receptor [2], at most 0.01 µM. Besides, the Emax at 1 µM on Human S1P3 receptor is under 20%. For the same compound, the activation at 1 µM on Human S1P4 receptor was under 20%.

For `CC(C)Cc1ccc(-c2cnc(-c3ccc(CN4CC(C(=O)O)C4)cc3)s2)cc1` [Example 48, 1-(4-(5-(4-isobutylphenyl)thiazol-2-yl)benzyl)azetidine-3-carboxylic acid], the EC50 was at most 0.05 µM at Human S1P1 receptor [1] and at most 0.001 µM on Human S1P1 receptor [2]. Further, the Emax at 1 µM on Human S1P3 receptor lay within 20 to 50%. Besides, the activation at 1 µM on Human S1P4 receptor is under 20%.

`CC(C)Oc1ccc(-c2cnc(-c3ccc(CN4CC(C(=O)O)C4)cc3)s2)cc1C#N` [Example 50, 1-(4-(5-(3-cyano-4-isopropoxyphenyl)thiazol-2-yl)benzyl)azetidine-3-carboxylic acid]: the EC50 at Human S1P1 receptor [1] is at most 0.05 µM; on Human S1P1 receptor [2] it was at most 0.001 µM. Further, the Emax at 1 µM at Human S1P3 receptor is 20 to 50%. The activation at 1 µM at Human S1P4 receptor is under 20%.

For the compound `O=C(O)C1CN(Cc2ccc(-c3ncc(-c4ccc(OC5CCC5)cc4)s3)cc2)C1` [Example 51, 1-(4-(5-(4-cyclobutoxyphenyl)thiazol-2-yl)benzyl)azetidine-3-carboxylic acid], the EC50 on Human S1P1 receptor [1] is at most 0.5 µM; at Human S1P1 receptor [2], at most 0.1 µM. Also, the Emax at 1 µM on Human S1P3 receptor is 20 to 50%. The activation at 1 µM on Human S1P4 receptor was under 20%.

For `Cc1cc(-c2cnc(-c3ccc(CN4CC(C(=O)O)C4)cc3)s2)ccc1OC(C)C` [Example 52, 1-(4-(5-(4-isopropoxy-3-methylphenyl)thiazol-2-yl)benzyl)azetidine-3-carboxylic acid], the concentration giving a half-maximal response (EC50) at Human S1P1 receptor [1] was at most 0.05 µM; at Human S1P1 receptor [2], at most 0.001 µM. The Emax at 1 µM at Human S1P3 receptor is 20 to 50%. In addition, the activation at 1 µM at Human S1P4 receptor is under 20%.

Consider `CC(C)Oc1ccc(-c2cnc(-c3ccc(CN4CC(C(=O)O)C4)cc3)s2)cc1F` [Example 53, 1-(4-(5-(3-fluoro-4-isopropoxyphenyl)thiazol-2-yl)benzyl)azetidine-3-carboxylic acid], for which the 50% effective concentration (EC50) on Human S1P1 receptor [1] was at most 0.5 µM; on Human S1P1 receptor [2] it was at most 0.01 µM. The Emax at 1 µM on Human S1P3 receptor is 20 to 50%. Besides, the activation at 1 µM on Human S1P4 receptor is under 20%.

Take `CC(C)Oc1ccc(-c2cnc(-c3ccc(CN4CC(C(=O)O)C4)cc3)s2)c(C(F)(F)F)c1` [Example 55, 1-(4-(5-(4-isopropoxy-2-(trifluoromethyl)phenyl)thiazol-2-yl)benzyl)azetidine-3-carboxylic acid]: the figures for the concentration for a half-maximal effect (EC50) on Human S1P1 receptor [1] and at Human S1P1 receptor [2] were at most 0.5 µM and at most 0.01 µM, respectively. Also, the Emax at 1 µM on Human S1P3 receptor is under 20%. Also, the activation at 1 µM on Human S1P4 receptor is under 20%.

Turning to `CC(C)Oc1ccc(-c2cnc(-c3ccc(CN4CC(C(=O)O)C4)cc3)s2)cc1C(F)(F)F` [Example 56, 1-(4-(5-(4-isopropoxy-3-(trifluoromethyl)phenyl)thiazol-2-yl)benzyl)azetidine-3-carboxylic acid], the EC50 on Human S1P1 receptor [1] was at most 0.1 µM; on Human S1P1 receptor [2] it was at most 0.001 µM. Besides, at Human S1P3 receptor, the Emax at 1 µM lay within 20 to 50%. Also, the activation at 1 µM at Human S1P4 receptor is under 20%.

In the case of `CC(C)Oc1ccc(-c2cnc(-c3ccc(CN4CC(C(=O)O)C4)c(F)c3)s2)cc1Cl` [Example 57, 1-(4-(5-(3-chloro-4-isopropoxyphenyl)thiazol-2-yl)-2-fluorobenzyl)azetidine-3-carboxylic acid], the concentration giving a half-maximal response (EC50) is at most 0.05 µM at Human S1P1 receptor [1] and at most 0.001 µM at Human S1P1 receptor [2]. In addition, the Emax at 1 µM at Human S1P3 receptor is under 20%. Further, the activation at 1 µM on Human S1P4 receptor is under 20%.

Take `CC(C)Oc1ccc(-c2cnc(-c3ccc(CN4CC(C(=O)O)C4)c(C(F)(F)F)c3)s2)cc1Cl` [Example 58, 1-(4-(5-(3-chloro-4-isopropoxyphenyl)thiazol-2-yl)-2-(trifluoromethyl)benzyl)azetidine-3-carboxylic acid]: the figures for the concentration for a half-maximal effect (EC50) at Human S1P1 receptor [1] and on Human S1P1 receptor [2] were at most 0.05 µM and at most 0.001 µM, respectively. Also, the Emax at 1 µM on Human S1P3 receptor was under 20%. The activation at 1 µM at Human S1P4 receptor is under 20%.
